Results as given in patent US6737383B1, “Herbicidal oxadiazolidines” (priority 1999, dated 2004).

Tests used:
bedstraw = test: Test B pre/postemergence bedstraw; assay type: in vivo, Galium aparine; settings: Postemergence
Method in brief: (§1)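 Test chemicals in a non-phytotoxic solvent mixture with surfactant were sprayed preemergence onto planted seeds and postemergence onto plants 2 to 18 cm tall (1- to 4-leaf stage). After twelve to sixteen days in a greenhouse, injury was visually rated against untreated controls from 0 (no effect) to 10 (complete control).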

rape = test: Test B pre/postemergence rape; assay type: in vivo, Brassica napus
Method in brief: as §1

wheat = test: Test B pre/postemergence wheat; assay type: in vivo, Triticum aestivum
Method in brief: as §1

blackgrass = test: Test B pre/postemergence blackgrass; assay type: in vivo, Alopecurus myosuroides
Method in brief: as §1

smallflower flatsedge = test: Test B flood test smallflower flatsedge; assay type: in vivo, Cyperus difformis
Method in brief: (§2)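 Plants were grown to the 2-leaf stage before treatment with test chemical, then held in a greenhouse for twelve to sixteen days. Injury was visually rated against untreated controls on a 0–10 scale, where 0 is no effect and 10 is complete control.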

wild oat = test: Test B pre/postemergence wild oat; assay type: in vivo, Avena fatua
Method in brief: as §1

soybean = test: Test B pre/postemergence soybean; assay type: in vivo, Glycine max
Method in brief: as §1

surinam grass = test: Test B pre/postemergence surinam grass; assay type: in vivo, Brachiaria decumbens
Method in brief: as §1

duck salad = test: Test B flood test duck salad; assay type: in vivo, Heteranthera limosa
Method in brief: as §2

cocklebur = test: Test B pre/postemergence cocklebur; assay type: in vivo, Xanthium strumarium
Method in brief: as §1

morningglory = test: Test B pre/postemergence morningglory; assay type: in vivo, Ipomoea hederacea
Method in brief: as §1

corn = test: Test B pre/postemergence corn; assay type: in vivo, Zea mays
Method in brief: as §1

giant foxtail = test: Test B pre/postemergence giant foxtail; assay type: in vivo, Setaria faberii
Method in brief: as §1

crabgrass = test: Test B pre/postemergence crabgrass; assay type: in vivo, Digitaria sanguinalis
Method in brief: as §1

bamyardgrass = test: Test B flood test barnyardgrass; assay type: in vivo, Echinochloa crus-galli
Method in brief: as §2

velvetleaf = test: Test B pre/postemergence velvetleaf; assay type: in vivo, Abutilon theophrasti
Method in brief: as §1

[1] = Postemergence, Rate 62 g/ha, scale 0 to 10, 0 is no effect, 10 is complete control
[2] = Postemergence, Rate 125 g/ha, scale of 0 to 10 where 0 is no effect and 10 is complete control
[3] = Postemergence, Rate 250 g/ha, scale of 0 to 10, 0 is no effect, 10 is complete control
[4] = Postemergence, Rate 500 g/ha, scale of 0 to 10 where 0 is no effect and 10 is complete control
[5] = Preemergence, Rate 62 g/ha, scale 0 to 10 (0 no effect, 10 complete control)
[6] = Preemergence, Rate 125 g/ha, scale of 0 to 10 where 0 is no effect and 10 is complete control
[7] = Preemergence, Rate 250 g/ha, scale 0 to 10 (0 no effect, 10 complete control)
[8] = Preemergence, Rate 500 g/ha, scale of 0 to 10 where 0 is no effect and 10 is complete control
[9] = Rate 62 g/ha, flood test species, Pre-emergence, visual evaluation after twelve to sixteen days
[10] = Rate 125 g/ha, under heading Pre-emergence, flood test species, visual evaluation after twelve to sixteen days
[11] = Rate 250 g/ha, Pre-emergence (flood test species), scale 0 to 10, 0 is no effect, 10 is complete control
[12] = Rate 500 g/ha, Pre-emergence section of Table B, 0 to 10 scale (0 no effect, 10 complete control)

Q: What does the source list for `CCOC(Cn1c(=O)on(C(=O)N(c2ccc(Cl)cc2)C(C)C)c1=O)OCC` [Compound 633]?
A: Plant response rating, Bedstraw (bedstraw; Rate 62 g/ha, scale 0 to 10, 0 is no effect, 10 is complete control): 0; Plant response rating, Bedstraw (bedstraw; Rate 125 g/ha, scale of 0 to 10 where 0 is no effect and 10 is complete control): 0; Bedstraw plant response rating (bedstraw; Rate 250 g/ha, scale of 0 to 10, 0 is no effect, 10 is complete control): 0; Plant response rating, Rape (rape; [1]): 0; Plant response rating, Rape (rape; [2]): 0; Rape plant response rating (rape; [3]): 0; Plant response rating, Rape (rape; [4]): 0; Rape plant response rating (rape; [5]): 0; Rape plant response rating (rape; [6]): 0; Plant response rating, Rape (rape; [7]): 1; Plant response rating, Rape (rape; [8]): 4; Plant response rating, Wheat (wheat; [1]): 0; Plant response rating, Wheat (wheat; [2]): 0; Wheat plant response rating (wheat; [3]): 0; Wheat plant response rating (wheat; [5]): 0; Wheat plant response rating (wheat; [6]): 0; Plant response rating, Wheat (wheat; [7]): 0; Plant response rating, Wheat (wheat; [8]): 0; Plant response rating, Blackgrass (blackgrass; [1]): 0; Plant response rating, Blackgrass (blackgrass; [2]): 0; Blackgrass plant response rating (blackgrass; [3]): 4; Plant response rating, Blackgrass (blackgrass; [4]): 8; Blackgrass plant response rating (blackgrass; [5]): 0; Blackgrass plant response rating (blackgrass; [6]): 3; Plant response rating, Blackgrass (blackgrass; [7]): 5; Plant response rating, Blackgrass (blackgrass; [8]): 7; Plant response rating, S. Flatsedge (0 to 10 scale, 0 is no effect, 10 is complete control) (smallflower flatsedge; [9]): 0; S. Flatsedge plant response rating (0 to 10 scale, 0 is no effect, 10 is complete control) (smallflower flatsedge; [10]): 0; S. Flatsedge plant response rating (smallflower flatsedge; [11]): 0; S. Flatsedge plant response rating (smallflower flatsedge; [12]): 0; Plant response rating, Wild oats (wild oat; [1]): 0; Plant response rating, Wild oats (wild oat; [2]): 0; Wild oats plant response rating (wild oat; [3]): 0; Wild oats plant response rating (wild oat; [5]): 0; Wild oats plant response rating (wild oat; [6]): 2; Plant response rating, Wild oats (wild oat; [7]): 3; Plant response rating, Wild oats (wild oat; [8]): 5; Plant response rating, Soybean (soybean; [1]): 2; Plant response rating, Soybean (soybean; [2]): 2; Soybean plant response rating (soybean; [3]): 2; Soybean plant response rating (soybean; [5]): 0; Soybean plant response rating (soybean; [6]): 0; Plant response rating, Soybean (soybean; [7]): 0; Plant response rating, Soybean (soybean; [8]): 0; Plant response rating, B. signalgrass (surinam grass; [1]): 0; Plant response rating, B. signalgrass (surinam grass; [2]): 0; B. signalgrass plant response rating (surinam grass; [3]): 0; Plant response rating, B. signalgrass (surinam grass; [4]): 5; B. signalgrass plant response rating (surinam grass; [5]): 0; B. signalgrass plant response rating (surinam grass; [6]): 3; Plant response rating, B. signalgrass (surinam grass; [7]): 6; Plant response rating, B. signalgrass (surinam grass; [8]): 6; Plant response rating, Ducksalad (0 to 10 scale, 0 is no effect, 10 is complete control) (duck salad; [9]): 0; Ducksalad plant response rating (0 to 10 scale, 0 is no effect, 10 is complete control) (duck salad; [10]): 0; Ducksalad plant response rating (duck salad; [11]): 0; Ducksalad plant response rating (duck salad; [12]): 0; Plant response rating, Cocklebur (cocklebur; [1]): 0; Plant response rating, Cocklebur (cocklebur; [2]): 0; Cocklebur plant response rating (cocklebur; [3]): 0; Plant response rating, Cocklebur (cocklebur; [4]): 0; Cocklebur plant response rating (cocklebur; [5]): 0; Cocklebur plant response rating (cocklebur; [6]): 0; Plant response rating, Cocklebur (cocklebur; [7]): 0; Plant response rating, Cocklebur (cocklebur; [8]): 0; Plant response rating, Morningglory (morningglory; [1]): 1; Plant response rating, Morningglory (morningglory; [2]): 2; Morningglory plant response rating (morningglory; [3]): 5; Plant response rating, Morningglory (morningglory; [4]): 5; Morningglory plant response rating (morningglory; [5]): 0; Morningglory plant response rating (morningglory; [6]): 0; Plant response rating, Morningglory (morningglory; [7]): 0; Plant response rating, Morningglory (morningglory; [8]): 0; Plant response rating, Corn (corn; [1]): 0; Plant response rating, Corn (corn; [2]): 0; Corn plant response rating (corn; [3]): 0; Plant response rating, Corn (corn; [4]): 0; Corn plant response rating (corn; [5]): 0; Corn plant response rating (corn; [6]): 0; Plant response rating, Corn (corn; [7]): 0; Plant response rating, Corn (corn; [8]): 2; Plant response rating, Giant foxtail (giant foxtail; [1]): 0; Plant response rating, Giant foxtail (giant foxtail; [2]): 0; Giant foxtail plant response rating (giant foxtail; [3]): 3; Plant response rating, Giant foxtail (giant foxtail; [4]): 8; Giant foxtail plant response rating (giant foxtail; [5]): 6; Giant foxtail plant response rating (giant foxtail; [6]): 9; Plant response rating, Giant foxtail (giant foxtail; [7]): 10; Plant response rating, Giant foxtail (giant foxtail; [8]): 10; Plant response rating, Crabgrass (crabgrass; [1]): 0; Plant response rating, Crabgrass (crabgrass; [2]): 0; Crabgrass plant response rating (crabgrass; [3]): 3; Plant response rating, Crabgrass (crabgrass; [4]): 9; Crabgrass plant response rating (crabgrass; [5]): 5; Crabgrass plant response rating (crabgrass; [6]): 8; Plant response rating, Crabgrass (crabgrass; [7]): 9; Plant response rating, Crabgrass (crabgrass; [8]): 9; Plant response rating, Barnyardgrass (0 to 10 scale, 0 is no effect, 10 is complete control) (bamyardgrass; [9]): 0; Barnyardgrass plant response rating (0 to 10 scale, 0 is no effect, 10 is complete control) (bamyardgrass; [10]): 0; Barnyardgrass plant response rating (bamyardgrass; [11]): 0; Barnyardgrass plant response rating (bamyardgrass; [12]): 0; Plant response rating, Velvetleaf (velvetleaf; [1]): 0; Plant response rating, Velvetleaf (velvetleaf; [2]): 0; Velvetleaf plant response rating (velvetleaf; [3]): 0; Velvetleaf plant response rating (velvetleaf; [5]): 0; Velvetleaf plant response rating (velvetleaf; [6]): 0; Plant response rating, Velvetleaf (velvetleaf; [7]): 0; Plant response rating, Velvetleaf (velvetleaf; [8]): 0
